Test results reported in patent US20240366589A1, “NHE3-BINDING COMPOUNDS AND METHODS FOR INHIBITING PHOSPHATE TRANSPORT” (Ardelyx, Inc., priority 2013, published 2024).

Tests used:
[1] = tested on: absorption of sodium from the intestinal lumen; assay: Fecal form score (FFS) 16 h after oral dose in rats; format: in vivo, rat; settings: oral gavage, 16 h post-dose, scale 1-5
Procedure, shortened: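 Eight-week-old Sprague-Dawley rats (n=6) dosed by oral gavage with compound or water vehicle between 4 and 5 PM, then housed in metabolic cages with food and water ad libitum. At 16 h, fecal form scored 1 (normal pellet) to 5 (liquid streams) by two observers; group mean reported.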

Human NHE3 = biological target: T1, Human NHE3 (Homo sapiens, UniProt P48764); assay: Cell-based NHE3 activity under prompt conditions (OK cells, BCECF pH recovery), human NHE3; settings: prompt conditions
T1 construct: expressed in transfected cells; host or cells: Opossum kidney (OK) cells (ATCC), electroporation
T1 sequence (P48764 26-834): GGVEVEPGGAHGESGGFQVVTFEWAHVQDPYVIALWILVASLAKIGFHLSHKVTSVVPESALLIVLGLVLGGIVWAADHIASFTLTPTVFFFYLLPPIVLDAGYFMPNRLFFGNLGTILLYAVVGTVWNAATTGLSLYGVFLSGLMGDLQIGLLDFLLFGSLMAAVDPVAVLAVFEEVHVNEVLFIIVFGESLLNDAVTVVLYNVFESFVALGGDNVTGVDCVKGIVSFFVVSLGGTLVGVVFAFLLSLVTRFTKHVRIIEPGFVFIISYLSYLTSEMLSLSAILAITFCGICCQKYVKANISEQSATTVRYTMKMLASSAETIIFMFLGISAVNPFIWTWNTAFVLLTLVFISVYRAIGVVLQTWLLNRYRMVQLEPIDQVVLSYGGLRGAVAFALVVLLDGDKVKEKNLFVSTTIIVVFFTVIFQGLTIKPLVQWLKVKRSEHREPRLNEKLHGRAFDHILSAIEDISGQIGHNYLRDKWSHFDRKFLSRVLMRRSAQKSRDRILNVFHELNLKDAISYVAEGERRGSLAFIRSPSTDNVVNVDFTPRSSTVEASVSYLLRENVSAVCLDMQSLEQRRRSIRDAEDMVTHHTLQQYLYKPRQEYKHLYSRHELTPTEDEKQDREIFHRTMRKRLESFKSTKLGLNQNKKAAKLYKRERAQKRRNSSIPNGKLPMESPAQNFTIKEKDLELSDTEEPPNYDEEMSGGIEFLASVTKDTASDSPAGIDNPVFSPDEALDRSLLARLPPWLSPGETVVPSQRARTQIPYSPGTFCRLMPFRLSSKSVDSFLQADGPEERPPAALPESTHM
Protocol: Cell-based activity under Prompt Conditions. Rat or human NHE3-mediated Na^+-dependent H antiport was measured using a modification of the pH sensitive dye method originally reported by Paradiso (PNAS USA. 81:7436-7440, 1984). Opossum kidney (OK) cells were obtained from the ATCC and propagated per their instructions. The rat NHE3 gene (GenBank M85300) or the human NHE3 gene (GenBank NM_004174.1) was introduced into OK cells via electroporation, and cells were seeded into 96 well plates and grown overnight. Medium was aspirated from the wells, cells were washed twice with NaCl-HEPES buffer (100 mM NaCl, 50 mM HEPES, 10 mM glucose, 5 mM KCl, 2 mM CaCl2, 1 mM MgCl2, pH 7.4), then incubated for 30 min at room temperature with NH4Cl-HEPES buffer (20 mM NH4Cl, 80 mM NaCl, 50 mM HEPES, 5 mM KCl, 2 mM CaCl2, 1 mM MgCl2, pH 7.4) containing 5 μM bis(acetoxymethyl) 3,3′-(3′,6′-bis(acetoxymethoxy)-5-((acetoxymethoxy)carbonyl)-3-oxo-3H-spiro[isobenzofuran-1,9′-xanthene]-2′,7′-diyl)dipropanoate (BCECF-AM).
Cells were washed twice with Ammonium free, Na^+-free HEPES (100 mM choline, 50 mM HEPES, 10 mM glucose, 5 mM KCl, 2 mM CaCl2, 1 mM MgCl2, pH 7.4) and incubated in the same buffer for 10 minutes at room temperature to lower intracellular pH. […] Initial rates were plotted as the average 2 or more replicates, and pIC50 values were estimated using GraphPad Prism.
Cell-based activity of NHE3 Activity under ‘Prompt’ Conditions. This assay was performed as described in Example 1 (supra).

[2] = tested on: absorption of sodium from the intestinal lumen; assay: Inhibition of intestinal sodium absorption: urinary sodium (uNa) 16 h after single oral dose in rats; format: in vivo, rat; settings: oral gavage, 16 h post-dose
Procedure, shortened: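 Eight-week-old Sprague-Dawley rats (n=6) given single oral gavage of compound or water vehicle in the late afternoon, then kept in metabolic cages with chow and water ad libitum. Urine collected over 16 h; sodium quantified by ion chromatography and expressed as % of vehicle mean, compared by one-way ANOVA with Dunnett's test.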

[3] = tested on: phosphorus and calcium levels in the urine of rats; assay: Urinary excretion of phosphate and calcium in rats (16 h overnight urine); format: in vivo, rat; settings: rats, oral gavage, 16 h post-dose
Rat NHE3 = biological target: T2, Rat NHE3 (Rattus norvegicus, UniProt P26433); assay: Cell-based NHE3 activity under prompt conditions (OK cells, BCECF pH recovery), rat NHE3; settings: prompt conditions; for IC50: read-out: Prompt Rat NHE3 pIC50 (converted)
T2 construct: expressed in transfected cells; host or cells: Opossum kidney (OK) cells (ATCC), electroporation
Procedure, shortened: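 OK cells electroporated with rat or human NHE3 gene, loaded 30 min at room temperature with 5 μM BCECF-AM in NH4Cl-HEPES pH 7.4.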

T2 sequence (P26433 29-831): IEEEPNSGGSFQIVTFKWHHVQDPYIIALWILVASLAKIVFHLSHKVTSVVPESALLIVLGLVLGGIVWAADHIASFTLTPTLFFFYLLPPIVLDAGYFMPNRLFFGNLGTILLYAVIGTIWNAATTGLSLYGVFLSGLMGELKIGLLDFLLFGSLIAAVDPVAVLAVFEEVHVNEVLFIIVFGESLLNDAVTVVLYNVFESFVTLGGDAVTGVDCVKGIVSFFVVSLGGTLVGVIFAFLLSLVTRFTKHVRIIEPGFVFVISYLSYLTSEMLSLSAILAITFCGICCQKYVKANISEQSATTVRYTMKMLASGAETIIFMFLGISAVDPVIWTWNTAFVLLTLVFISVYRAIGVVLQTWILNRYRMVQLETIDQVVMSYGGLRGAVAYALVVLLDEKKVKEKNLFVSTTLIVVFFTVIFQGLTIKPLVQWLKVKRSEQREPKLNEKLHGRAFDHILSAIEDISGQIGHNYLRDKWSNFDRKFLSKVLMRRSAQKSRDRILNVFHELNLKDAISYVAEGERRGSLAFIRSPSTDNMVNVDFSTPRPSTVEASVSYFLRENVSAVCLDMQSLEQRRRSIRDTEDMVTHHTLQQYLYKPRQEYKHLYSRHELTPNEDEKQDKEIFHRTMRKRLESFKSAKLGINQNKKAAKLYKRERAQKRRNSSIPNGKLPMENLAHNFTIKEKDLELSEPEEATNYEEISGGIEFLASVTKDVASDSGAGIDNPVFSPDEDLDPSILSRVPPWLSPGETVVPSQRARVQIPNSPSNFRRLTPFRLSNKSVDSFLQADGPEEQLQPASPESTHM

Row | SMILES | Fecal Form Score average ([1]; dose 10 mg/kg) | Prompt Human NHE3 pIC50 (Human NHE3) | Urine Na % of control ([2]; dose 10 mg/kg) [%] | Urine P % of control ([3]; dose 10 mg/kg) [%] | Prompt Rat NHE3 pIC50 (Rat NHE3) | Fecal Form Score average ([1]; dose 1 mg/kg) | Fecal Form Score average ([1]; dose 3 mg/kg) | Urine Na % of control ([2]; dose 1 mg/kg) [%] | Urine Na % of control ([2]; dose 3 mg/kg) [%] | Urine P % of control ([3]; dose 1 mg/kg) [%] | Urine P % of control ([3]; dose 3 mg/kg) [%] | IC50 (Human NHE3; read-out: Prompt Human NHE3 pIC50 (converted)) [nM] | IC50 (Rat NHE3) [nM] | Fecal Form Score average ([1]; dose 8 mg/kg) | Urine Na % of control ([2]; dose 8 mg/kg) [%] | Urine P % of control ([3]; dose 8 mg/kg) [%]
1 | CN1Cc2c(Cl)cc(Cl)cc2[C@H](c2cccc(S(=O)(=O)NCCOCCOCCOCCNC(=O)CN(CC(=O)NCCOCCOCCOCCNS(=O)(=O)c3cccc([C@@H]4CN(C)Cc5c(Cl)cc(Cl)cc54)c3)CC(=O)NCCOCCOCCOCCNS(=O)(=O)c3cccc([C@@H]4CN(C)Cc5c(Cl)cc(Cl)cc54)c3)c2)C1 [compound 57] | 3 | 7.50 | 25 | 75 | 7.10 |  |  |  |  |  |  |  |  |  |  | 
2 | CN1Cc2c(Cl)cc(Cl)cc2[C@H](c2cccc(S(=O)(=O)NCCOCCOCCOCCNC(=O)CN(CC(=O)NCCOCCOCCOCCNS(=O)(=O)c3cccc([C@@H]4CN(C)Cc5c(Cl)cc(Cl)cc54)c3)[C@@H]3CCCC[C@H]3N(CC(=O)NCCOCCOCCOCCNS(=O)(=O)c3cccc([C@@H]4CN(C)Cc5c(Cl)cc(Cl)cc54)c3)CC(=O)NCCOCCOCCOCNS(=O)(=O)c3cccc([C@@H]4CN(C)Cc5c(Cl)cc(Cl)cc54)c3)c2)C1 [compound 71] | 1 | 7.00 | 80 | 40 | 6.50 |  |  |  |  |  |  |  |  |  |  | 
3 | O=C(NCCCCNC(=O)NCCOCCOCCOCCNS(=O)(=O)c1ccc(O[C@H]2c3ccccc3C[C@@H]2N2CCCCC2)cc1)NCCOCCOCCOCCNS(=O)(=O)c1ccc(O[C@H]2c3ccccc3C[C@@H]2N2CCCCC2)cc1 (racemic) [compound 51] | 1 | 7.90 | 79 | 52 | 7.40 |  |  |  |  |  |  |  |  |  |  | 
4 | CN1Cc2c(Cl)cc(Cl)cc2[C@H](c2cccc(S(=O)(=O)NCCOCCOCCNC(=O)NCCC[N+](C)(CCCNC(=O)NCCOCCOCCNS(=O)(=O)c3cccc([C@@H]4CN(C)Cc5c(Cl)cc(Cl)cc54)c3)CCCNC(=O)NCCOCCOCCNS(=O)(=O)c3cccc([C@@H]4CN(C)Cc5c(Cl)cc(Cl)cc54)c3)c2)C1 [compound 109] | 4 | 8.10 | 28 | 52 | 7.40 | 1 | 2 | 64 | 52 | 65 | 51 |  |  |  |  | 
5 | O=C(NCCOCCOCCOCCNS(=O)(=O)c1ccc(OC2c3ccccc3CC2N2CCCCC2)cc1)C(O)C(O)C(=O)NCCOCCOCCOCCNS(=O)(=O)c1ccc(OC2c3ccccc3CC2N2CCCCC2)cc1 (mixture of isomers) [compound 55] | 1 |  | 85 | 45 |  |  |  |  |  |  |  | 12.6 | 20 |  |  | 
6 | CN1Cc2c(Cl)cc(Cl)cc2[C@H](c2cccc(S(=O)(=O)NCCOCCOCCOCCNC(=O)NCCCN(CCCNC(=O)NCCOCCOCCOCCNS(=O)(=O)c3cccc([C@@H]4CN(C)Cc5c(Cl)cc(Cl)cc54)c3)CCCNC(=O)NCCOCCOCCOCCNS(=O)(=O)c3cccc([C@@H]4CN(C)Cc5c(Cl)cc(Cl)cc54)c3)c2)C1 [compound 64] | 1 | 8.20 | 34 | 66 | 7.40 |  |  |  |  |  |  |  |  |  |  | 
7 | CN(C)CC(=O)NC(CCC(=O)N(C)CCOCCOCCNS(=O)(=O)c1cccc([C@@H]2CN(C)Cc3c(Cl)cc(Cl)cc32)c1)(CCC(=O)N(C)CCOCCOCCNS(=O)(=O)c1cccc([C@@H]2CN(C)Cc3c(Cl)cc(Cl)cc32)c1)CCC(=O)N(C)CCOCCOCCNS(=O)(=O)c1cccc([C@@H]2CN(C)Cc3c(Cl)cc(Cl)cc32)c1 [compound 176] |  | 7.40 |  |  | 7.50 |  | 1 |  | 73 |  | 92 |  |  |  |  | 
8 | CN1Cc2c(Cl)cc(Cl)cc2[C@H](c2cccc(S(=O)(=O)NCCOCCOCCNC(=O)CCC(CCC(=O)NCCOCCOCCNS(=O)(=O)c3cccc([C@@H]4CN(C)Cc5c(Cl)cc(Cl)cc54)c3)(CCC(=O)NCCOCCOCCNS(=O)(=O)c3cccc([C@@H]4CN(C)Cc5c(Cl)cc(Cl)cc54)c3)N(C)C)c2)C1 [compound 124] |  | 7.50 |  |  |  | 1 | 2 | 69 | 22 | 154 | 61 |  | 67.6 |  |  | 
9 | CN1Cc2c(Cl)cc(Cl)cc2[C@H](c2cccc(S(=O)(=O)NCCOCCOCCOCCNC(=O)CC(CC(=O)NCCOCCOCCOCCNS(=O)(=O)c3cccc([C@@H]4CN(C)Cc5c(Cl)cc(Cl)cc54)c3)C(=O)NCCOCCOCCOCCNS(=O)(=O)c3cccc([C@@H]4CN(C)Cc5c(Cl)cc(Cl)cc54)c3)c2)C1 [compound 84] |  | 7.70 |  |  | 7.50 |  |  |  |  |  |  |  |  | 3 | 7 | 47
10 | CN1Cc2c(Cl)cc(Cl)cc2[C@H](c2cccc(S(=O)(=O)N(C)CCOCCOCCNC(=O)NCCCN(CCCNC(=O)NCCOCCOCCN(C)S(=O)(=O)c3cccc([C@@H]4CN(C)Cc5c(Cl)cc(Cl)cc54)c3)CCCNC(=O)NCCOCCOCCN(C)S(=O)(=O)c3cccc([C@@H]4CN(C)Cc5c(Cl)cc(Cl)cc54)c3)c2)C1 [compound 106] | 4 | 7.90 | 20 | 64 | 7.00 | 1 | 2 | 98 | 76 | 124 | 39 |  |  |  |  | 
